Test results published in patent US9303005B2, “Use of dibenzofuranone derivatives to inhibit kinases” (priority 2010, dated 2016).

Tests used:
CK2 holoenzyme = CK2 holoenzyme (Homo sapiens (Human), UniProt P68400); experiment: capillary electrophoretic CK2 inhibition/activity test (E-peptide substrate); format: biochemical; details: for CK2-activity at 10 μM: residual CK2 activity at 10 μM substance, values below 4% not reliably quantifiable; for IC50: capillary electrophoretic test, ten minutes pre-incubation
Description: To this end, the capillary electrophoretic CK2 inhibition test using E-peptide as the substrate was carried out. […] Ten concentrations between 0.0001 μM and 10 μM were investigated for this purpose.
Kuckländer (Kuckländer and Töberich, 1982; Bollig, 2007).

[1] = prior art; lactam ring hydrolysis; cited from earlier work
CK2 = details: prior-art value; read-out: IC50 (CK2, literature); cited from earlier work
[2] = system: endogenous CK2 of LNCaP cells; experiment: CK2 activity in lysates of treated LNCaP cells (radiometric test); format: cell-based, human; details: for endogenous CK2 activity of LNCaP cells: from 25 μM, 24 h or 48 h, relative to untreated cells
Description: The CK2 activity was determined using a radiometric test procedure. The relative activities of the samples were each relative to untreated cells. White bars show the CK2 activity after 24 h; grey bars show the CK2 activity after 48 h incubation with each inhibitor. For samples (A) treated with TF, double determinations were carried out (the mean value is given in each case).
LNCaP cells were incubated with TF in the same manner as in the experiments described above. After 24 h or 48 h, the CK2 activity of lysates was measured using radiometric CK2 testing. This investigation provided an indication as to whether the inhibition of TF found with the isolated enzyme could be observed in cellular systems. […] Cells were incubated for 24 h or 48 h with 25 μM, 50 μM or 75 μM of TF and then washed and lysed. The relative CK2 activity was calculated from these cell lysates. The reference was the CK2 activity of cell lysates from untreated cells incubated for corresponding periods. In order to compensate for any fluctuations in the radiometric test, in the case of TF, two samples per parameter were measured. As a qualitative control, the TBB samples were used and measured individually.
The observed reduction in CK2 activity was thus due to modulation of the CK2 enzyme activity. […] Altogether, it can be seen that TF reduces the endogenous CK2 activity in LNCaP cells. […] Proof of the inhibition of intracellular CK2 is provided by the ability of TF to permeate cells.

[3] = system: 63 isolated human protein kinases; experiment: Selectivity profile over 63 isolated human protein kinases; format: biochemical; details: 10 μM TF, 10 μM ATP
Description: (§1) The listed PKs were incubated with 10 μM TF and 10 μM ATP. Next, the relative percentage kinase activity was determined (mean value from n=2). 100% activity was defined as the activity of the respective kinase in the absence of TF. The PK grouping was in accordance with Manning et al. (2002).
After the inhibitory potency of TF had been able to be established in LNCaP cells, the possibility that TF could be a selective CK2 inhibitor had to be investigated. To this end, the inhibiting effect of TF on 63 isolated human protein kinases (PK) was investigated by the firm “Reaction Biology” (Malvern, Pa., USA). These included representatives of PKs from all main groups of the human kinome (Manning et al., 2002). The results of this investigation are shown in FIG. 8, classified into the main human PK groups. In this series of tests, all of the PKs were each incubated with 10 μM of ATP and 10 μM of TF. In a subsequent radiometric test, the respective kinase activity with respect to a sample without TF was determined. Since the KM values of PK with respect to ATP occasionally differed substantially (Knight and Shokat, 2005), the results only allow a semi-quantitative comparison of inhibition by TF to be made. […]

FLT4/VEGFR3 = FLT4/VEGFR3 (Homo sapiens (Human), UniProt P35916); experiment: Reaction Biology radiometric kinase selectivity test; format: biochemical; details: 10 μM TF, 10 μM ATP, relative kinase activity
Description: as §1
(§2) After the inhibitory potency of TF had been able to be established in LNCaP cells, the possibility that TF could be a selective CK2 inhibitor had to be investigated. To this end, the inhibiting effect of TF on 63 isolated human protein kinases (PK) was investigated by the firm “Reaction Biology” (Malvern, Pa., USA). These included representatives of PKs from all main groups of the human kinome (Manning et al., 2002). The results of this investigation are shown in FIG. 8, classified into the main human PK groups. In this series of tests, all of the PKs were each incubated with 10 μM of ATP and 10 μM of TF. In a subsequent radiometric test, the respective kinase activity with respect to a sample without TF was determined. Since the KM values of PK with respect to ATP occasionally differed substantially (Knight and Shokat, 2005), the results only allow a semi-quantitative comparison of inhibition by TF to be made. […] However, the different test parameters, such as substrate and ATP concentration, buffer, etc., must be taken into account and so a direct comparison of the inhibition data as a percentage is not possible at this point. The seven PKs which were inhibited the most strongly (>70%) are listed separately in Table 3.

PKD2/PRKD2 = PKD2/PRKD2 (Homo sapiens (Human), UniProt Q9BZL6); experiment: as above; format: biochemical; details: 10 μM TF, 10 μM ATP, relative kinase activity
Description: as §1, §2

LBK1 = LBK1 (Homo sapiens (Human), UniProt Q15831); experiment: as above; format: biochemical; details: 10 μM TF, 10 μM ATP
Description: as §1, §2

IRAK4 = IRAK4 (Homo sapiens (Human), UniProt Q9NWZ3); experiment: as above; format: biochemical; details: 10 μM TF, 10 μM ATP
Description: as §1, §2

PAK4 = PAK4 (Homo sapiens (Human), UniProt O96013); experiment: as above; format: biochemical; details: 10 μM TF, 10 μM ATP
Description: as §1, §2

KDR/VEGFR2 = KDR/VEGFR2 (Homo sapiens (Human), UniProt P35968); experiment: as above; format: biochemical; details: 10 μM TF, 10 μM ATP, relative kinase activity
Description: as §1, §2

CK2α′ (CK2a2) = CK2α′ (CK2a2) (Homo sapiens (Human), UniProt P19784); experiment: as above; format: biochemical; details: 10 μM TF, 10 μM ATP; read-out: residual activity CK2α′
Description: as §1, §2

PIM1 = PIM1 (Homo sapiens (Human), UniProt P11309); experiment: as above; format: biochemical; details: 10 μM TF, 10 μM ATP, relative kinase activity
Description: as §1, §2

Aurora A = Aurora A (Homo sapiens (Human), UniProt O14965); experiment: as above; format: biochemical; details: 10 μM TF, 10 μM ATP, relative kinase activity
Description: as §1, §2

LCK = LCK (Homo sapiens (Human), UniProt P06239); experiment: as above; format: biochemical; details: 10 μM TF, 10 μM ATP, relative kinase activity
Description: as §1, §2

SGK1 (d1-59, S422D) = SGK1 (d1-59, S422D) (Homo sapiens (Human), UniProt O00141, S422D); experiment: as above; format: biochemical; details: 10 μM TF, 10 μM ATP, relative kinase activity
Description: as §1, §2

MAPK14 = MAPK14 (Homo sapiens (Human), UniProt Q16539); experiment: as above; format: biochemical; details: 10 μM TF, 10 μM ATP
Description: as §1, §2

LNCaP cells = experiment: MTT test, viability of LNCaP cells; format: cell-based, human; details: relative to untreated cells; for viability at 25 µM / viability at 50 µM / viability at 75 µM: Homo sapiens, LNCaP
Description: The viability was determined with the aid of the MTT test.
A MTT test was used to determine the effect of TF on the viability of LNCaP cells. To this end, these cell lines were treated with three concentrations of TF (25 μM, 50 μM, 75 μM). The effect was determined after 24 h, 48 h and 72 h as the relative viability compared with untreated cells. […] After treating the LNCaP cells with TF, both the effects of increasing the concentration and also of prolonging the incubation time could be recorded. After 24 hours incubation with 25 μM of TF, the viability had already dropped to 45% and after the same incubation time with 50 μM of TF, it had dropped further to 30%. […] The effects after 24 h could be reinforced in each case by extending the incubation time. Thus, after 48 hours incubation with 25 μM, 50 μM and 75 μM of TF, a viability of 37%, 15% or 12% was observed. […] Thus, an incubation time of 24 h had only a small effect. […] Only at the highest concentration of 75 μM, a reduction to 45% after 48 h was recorded, and after 72 h, the viability was still 17% (FIG. 5B). […] In summary, it has been shown that the viability of LNCaP cells is reduced by both substances.

[4] = system: PARP cleavage in LNCaP cells; experiment: PARP cleavage in LNCaP cells (Western Blot); format: cell-based, human
Description: The controls were cells which had only been treated with DMSO (0 μM). After SDS-PAGE and Western Blotting, complete PARP (115 kDa) and the 89 kDa fragment obtained after caspase cleavage with the aid of an anti-PARP antibody were labelled.
Next, we investigated whether the TF-mediated reduction in cell viability could be related to apoptotic events. To this end, cleavage of poly(ADP-ribose)-polymerase (PARP) in cells was assayed. Caspase 3 cleaves the 115 kDa PARP into two stable fragments: the 24 kDa DNA-binding N-terminal domain and the 89 kDa C-terminal fragment. This specific proteolysis of PARP characterizes the irreversible point of initiation apoptosis and can be assayed in a Western Blot of cell lysates with a specific PARP antibody. […] This effect was observed both after an incubation time of 24 h and also, more strongly, after 48 h.

CK2α (CK2a) = CK2α (CK2a) (Homo sapiens (Human), UniProt P68400); experiment: Reaction Biology radiometric kinase selectivity test; format: biochemical; details: 10 μM TF, 10 μM ATP; read-out: residual activity CK2α
[5] = prior art; cited from earlier work

CK2 holoenzyme, sequence (P68400 whole entry): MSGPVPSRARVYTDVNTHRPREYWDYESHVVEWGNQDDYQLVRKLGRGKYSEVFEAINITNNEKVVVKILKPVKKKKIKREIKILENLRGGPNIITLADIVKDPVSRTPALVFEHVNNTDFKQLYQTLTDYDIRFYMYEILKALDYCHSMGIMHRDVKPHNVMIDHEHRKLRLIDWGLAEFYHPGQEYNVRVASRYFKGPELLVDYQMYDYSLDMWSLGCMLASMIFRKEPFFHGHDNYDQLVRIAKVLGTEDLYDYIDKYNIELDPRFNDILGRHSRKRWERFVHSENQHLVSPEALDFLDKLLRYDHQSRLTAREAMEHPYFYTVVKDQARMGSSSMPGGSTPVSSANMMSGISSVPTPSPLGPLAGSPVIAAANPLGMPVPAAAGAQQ
CK2 holoenzyme, sequence (P67870 whole entry partner): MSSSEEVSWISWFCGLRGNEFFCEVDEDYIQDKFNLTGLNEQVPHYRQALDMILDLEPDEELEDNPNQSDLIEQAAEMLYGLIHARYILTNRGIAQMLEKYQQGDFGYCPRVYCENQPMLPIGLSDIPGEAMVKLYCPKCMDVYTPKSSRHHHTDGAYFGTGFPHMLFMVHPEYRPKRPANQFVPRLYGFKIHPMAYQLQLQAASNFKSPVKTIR
PKD2/PRKD2, sequence (Q9BZL6 whole entry): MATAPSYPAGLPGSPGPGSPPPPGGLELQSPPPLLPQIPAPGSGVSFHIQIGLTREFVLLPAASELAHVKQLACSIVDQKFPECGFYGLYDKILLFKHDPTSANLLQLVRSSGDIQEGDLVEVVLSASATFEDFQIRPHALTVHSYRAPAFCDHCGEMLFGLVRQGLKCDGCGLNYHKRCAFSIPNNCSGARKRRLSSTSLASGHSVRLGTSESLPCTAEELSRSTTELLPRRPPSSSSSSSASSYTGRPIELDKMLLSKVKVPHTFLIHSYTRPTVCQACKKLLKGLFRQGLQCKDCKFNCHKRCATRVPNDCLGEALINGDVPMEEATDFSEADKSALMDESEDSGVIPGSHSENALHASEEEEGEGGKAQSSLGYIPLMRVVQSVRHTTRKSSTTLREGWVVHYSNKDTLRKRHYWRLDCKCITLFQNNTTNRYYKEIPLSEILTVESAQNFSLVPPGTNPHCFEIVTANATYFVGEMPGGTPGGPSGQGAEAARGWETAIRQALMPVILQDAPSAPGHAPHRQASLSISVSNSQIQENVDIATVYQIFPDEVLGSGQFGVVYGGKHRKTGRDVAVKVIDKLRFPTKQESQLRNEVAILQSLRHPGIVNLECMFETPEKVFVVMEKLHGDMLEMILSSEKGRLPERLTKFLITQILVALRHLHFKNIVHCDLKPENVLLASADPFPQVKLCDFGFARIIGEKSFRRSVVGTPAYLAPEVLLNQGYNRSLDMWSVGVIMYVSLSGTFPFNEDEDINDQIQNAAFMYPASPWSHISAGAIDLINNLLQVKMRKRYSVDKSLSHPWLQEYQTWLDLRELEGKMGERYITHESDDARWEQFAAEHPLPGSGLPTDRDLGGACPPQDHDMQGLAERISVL
FLT4/VEGFR3, sequence (P35916 25-1363): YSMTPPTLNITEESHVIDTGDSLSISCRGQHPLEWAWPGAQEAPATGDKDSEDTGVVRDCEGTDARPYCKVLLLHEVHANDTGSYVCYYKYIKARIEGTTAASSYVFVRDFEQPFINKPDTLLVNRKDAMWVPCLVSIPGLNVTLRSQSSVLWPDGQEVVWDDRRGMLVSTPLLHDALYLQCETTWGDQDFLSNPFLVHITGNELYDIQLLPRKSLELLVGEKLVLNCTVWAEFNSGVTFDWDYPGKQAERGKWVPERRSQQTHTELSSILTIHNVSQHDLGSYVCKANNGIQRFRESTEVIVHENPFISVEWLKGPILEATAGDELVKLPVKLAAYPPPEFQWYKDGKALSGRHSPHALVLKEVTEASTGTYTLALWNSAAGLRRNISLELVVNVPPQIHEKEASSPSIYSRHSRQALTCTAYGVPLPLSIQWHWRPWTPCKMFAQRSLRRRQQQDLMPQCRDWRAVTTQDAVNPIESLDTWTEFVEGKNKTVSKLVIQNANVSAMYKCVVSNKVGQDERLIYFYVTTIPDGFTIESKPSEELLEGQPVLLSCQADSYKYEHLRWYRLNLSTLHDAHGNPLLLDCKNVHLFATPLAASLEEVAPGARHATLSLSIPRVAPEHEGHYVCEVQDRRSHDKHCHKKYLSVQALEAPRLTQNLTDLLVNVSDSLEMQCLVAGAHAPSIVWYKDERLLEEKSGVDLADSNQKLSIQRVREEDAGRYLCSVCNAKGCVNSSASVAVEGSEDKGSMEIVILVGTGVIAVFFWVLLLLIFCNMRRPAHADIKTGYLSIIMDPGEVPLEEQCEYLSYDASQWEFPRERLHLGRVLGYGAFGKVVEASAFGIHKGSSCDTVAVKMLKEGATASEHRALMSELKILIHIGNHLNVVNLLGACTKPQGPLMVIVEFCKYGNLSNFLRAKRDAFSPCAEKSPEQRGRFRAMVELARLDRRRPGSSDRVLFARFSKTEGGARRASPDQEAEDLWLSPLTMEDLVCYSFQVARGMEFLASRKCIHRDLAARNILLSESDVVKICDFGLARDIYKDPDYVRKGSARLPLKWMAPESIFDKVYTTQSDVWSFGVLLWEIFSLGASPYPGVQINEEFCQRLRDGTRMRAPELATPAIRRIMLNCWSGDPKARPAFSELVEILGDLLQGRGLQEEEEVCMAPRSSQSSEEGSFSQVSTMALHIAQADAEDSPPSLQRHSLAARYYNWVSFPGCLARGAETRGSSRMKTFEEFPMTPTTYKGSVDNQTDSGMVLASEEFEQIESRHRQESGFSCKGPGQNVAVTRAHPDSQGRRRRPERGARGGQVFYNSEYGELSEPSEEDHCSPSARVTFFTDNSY
KDR/VEGFR2, sequence (P35968 20-1356): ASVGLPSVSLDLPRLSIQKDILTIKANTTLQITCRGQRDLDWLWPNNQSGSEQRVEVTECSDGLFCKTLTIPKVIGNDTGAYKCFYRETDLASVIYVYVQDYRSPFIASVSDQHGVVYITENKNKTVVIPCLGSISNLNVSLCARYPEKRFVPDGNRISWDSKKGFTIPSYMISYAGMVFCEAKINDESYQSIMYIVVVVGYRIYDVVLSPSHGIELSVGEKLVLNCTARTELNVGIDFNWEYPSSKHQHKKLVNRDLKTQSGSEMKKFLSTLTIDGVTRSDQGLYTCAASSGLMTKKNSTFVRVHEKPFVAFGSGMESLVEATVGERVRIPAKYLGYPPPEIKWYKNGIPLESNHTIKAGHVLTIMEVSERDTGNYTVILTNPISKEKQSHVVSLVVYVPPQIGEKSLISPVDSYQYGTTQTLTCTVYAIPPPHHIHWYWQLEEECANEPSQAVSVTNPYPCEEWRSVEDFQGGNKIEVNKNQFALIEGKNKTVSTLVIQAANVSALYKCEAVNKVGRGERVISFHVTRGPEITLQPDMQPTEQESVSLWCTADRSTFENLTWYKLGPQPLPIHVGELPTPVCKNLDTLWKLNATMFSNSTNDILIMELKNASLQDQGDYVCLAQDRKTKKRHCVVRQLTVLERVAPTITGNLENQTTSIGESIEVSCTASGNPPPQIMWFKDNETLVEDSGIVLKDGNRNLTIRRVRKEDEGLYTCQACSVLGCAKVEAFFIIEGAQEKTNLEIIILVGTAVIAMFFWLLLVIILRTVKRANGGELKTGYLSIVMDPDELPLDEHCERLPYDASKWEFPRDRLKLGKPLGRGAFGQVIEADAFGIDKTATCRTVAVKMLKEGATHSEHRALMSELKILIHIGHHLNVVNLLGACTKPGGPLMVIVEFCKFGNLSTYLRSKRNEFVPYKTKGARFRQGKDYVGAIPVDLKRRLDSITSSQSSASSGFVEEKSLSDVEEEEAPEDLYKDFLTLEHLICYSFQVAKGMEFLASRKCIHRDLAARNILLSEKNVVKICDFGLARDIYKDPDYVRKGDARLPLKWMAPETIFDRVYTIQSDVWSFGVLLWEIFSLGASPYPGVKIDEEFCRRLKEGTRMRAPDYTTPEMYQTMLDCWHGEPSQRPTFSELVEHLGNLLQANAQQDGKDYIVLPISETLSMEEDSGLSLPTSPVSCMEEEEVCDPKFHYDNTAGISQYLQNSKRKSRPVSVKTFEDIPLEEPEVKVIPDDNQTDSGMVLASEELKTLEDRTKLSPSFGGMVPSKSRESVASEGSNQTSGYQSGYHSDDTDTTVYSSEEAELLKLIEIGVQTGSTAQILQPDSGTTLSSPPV
CK2α (CK2a), sequence (P68400 whole entry): as the sequence (P68400 whole entry) above
CK2α′ (CK2a2), sequence (P19784 whole entry): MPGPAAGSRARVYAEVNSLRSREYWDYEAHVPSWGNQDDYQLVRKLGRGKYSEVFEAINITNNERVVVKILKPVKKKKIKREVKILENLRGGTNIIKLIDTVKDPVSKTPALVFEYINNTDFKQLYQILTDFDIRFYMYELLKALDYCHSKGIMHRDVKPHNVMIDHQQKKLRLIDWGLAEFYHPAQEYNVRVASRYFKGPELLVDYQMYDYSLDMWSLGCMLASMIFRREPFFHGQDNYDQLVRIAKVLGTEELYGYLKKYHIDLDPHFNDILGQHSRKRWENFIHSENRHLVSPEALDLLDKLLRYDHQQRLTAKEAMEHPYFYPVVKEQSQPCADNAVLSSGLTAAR
Aurora A, sequence (O14965 whole entry): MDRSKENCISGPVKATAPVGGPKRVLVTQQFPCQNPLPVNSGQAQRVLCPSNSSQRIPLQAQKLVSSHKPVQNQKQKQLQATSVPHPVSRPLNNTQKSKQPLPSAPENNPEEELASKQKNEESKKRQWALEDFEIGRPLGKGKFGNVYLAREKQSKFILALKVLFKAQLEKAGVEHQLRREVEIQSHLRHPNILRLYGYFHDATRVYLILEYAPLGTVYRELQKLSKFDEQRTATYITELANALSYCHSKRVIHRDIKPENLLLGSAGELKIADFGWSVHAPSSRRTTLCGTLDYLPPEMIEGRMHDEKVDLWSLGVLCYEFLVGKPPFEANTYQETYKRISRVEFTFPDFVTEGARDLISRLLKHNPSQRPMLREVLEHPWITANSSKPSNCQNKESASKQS

SMILES: CCOC(=O)c1oc2ccc(OC(C)=O)c(CNC(C)=O)c2c1NC(C)=O [RicFur]
- CK2-activity at 10 μM (CK2 holoenzyme): 110%^

SMILES: O=C(O)Cc1c2ccccc2n2c1[nH]c(=O)c1ccccc12 [IQA, (5-oxo-5,6-dihydroindolo[1,2-a]quinazolin-7-yl) acetic acid]
- stability in aqueous media [1]: unstable in aqueous media

SMILES: CC(=O)Oc1c(Cl)c(Cl)c2oc(C(=O)C=C(C)C)c(N)c2c1C#N [Ric152]
- IC50 (CK2 holoenzyme): 200 nM

SMILES: O=c1cc(-c2ccc(O)cc2)oc2cc(O)cc(O)c12 [apigenin]
- IC50 (CK2): ~1000 nM

SMILES: CC1=C(Br)COc2c1ccc(O)c2Br [DBC, 3,8-dibromo-7-hydroxy-4-methyl-chromene]
- IC50 (CK2): 100 nM

SMILES: O=c1c2c(O)cccc2oc2c([N+](=O)[O-])ccc(O)c12 [MNX, 1,8-dihydro-4-nitroxanthen-9-one]
- IC50 (CK2): 400 nM

SMILES: CC(C)=CC(=O)c1coc2ccc(O)cc12 [Ric149]
- CK2-activity at 10 μM (CK2 holoenzyme): 61%^

SMILES: Cc1ccc(N/C=C2\C(=O)CCc3c2oc2c(Cl)c(Cl)c(O)cc32)cc1 [TF, (Z)-6,7-dichloro-1,4-dihydro-8-hydroxy-4-[(4-methylphenylamino)methylene]-dibenzo[b,d]furan-3(2H)-one]
- endogenous CK2 activity of LNCaP cells [2]: 50%
- number of the 63 PK inhibited (reduction in activity of >50%) in addition to CK2α and CK2α′ [3]: twelve
- Activity FLT4/VEGFR3 (FLT4/VEGFR3): 19.68%
- Activity PKD2/PRKD2 (PKD2/PRKD2): 20.90%
- kinase activity LBK1 (LBK1): clear increase in activity
- kinase activity IRAK4 (IRAK4): clear increase in activity
- kinase activity PAK4 (PAK4): clear increase in activity
- Activity KDR/VEGFR2 (KDR/VEGFR2): 13.05%
- remaining activity at 10 µM (CK2α′ (CK2a2)): 35%
- Activity PIM1 (PIM1): 19.90%
- Activity Aurora A (Aurora A): 11.00%
- Activity LCK (LCK): 29.20%
- Activity SGK1 (d1-59, S422D) (SGK1 (d1-59, S422D)): 14.16%
- kinase activity MAPK14 (MAPK14): clear increase in activity
- viability at 25 µM (LNCaP cells; 25 μM, 24 h): 45%
- viability at 25 µM (LNCaP cells; 25 μM, 48 h): 37%
- viability at 25 µM (LNCaP cells; 25 μM, 72 h): 14%
- viability at 50 µM (LNCaP cells; 24 h): 30%
- viability at 50 µM (LNCaP cells; 48 h): 15%
- viability at 50 µM (LNCaP cells; 72 h): 5%
- viability at 75 µM (LNCaP cells; 24 h): 31%
- viability at 75 µM (LNCaP cells; 48 h): 12%
- viability at 75 µM (LNCaP cells; 72 h): 3%
- bands of the 89 kDa PARP fragment ([4]; from 50 μM, 24 h and 48 h): increased in intensity in a concentration-dependent manner
- mode of inhibition (CK2 holoenzyme; IC50 at 8 different ATP concentrations): ATP competitive inhibitor
- Ki (CK2 holoenzyme; Y-axis intersection of IC50 vs ATP concentration (8 ATP concentrations), read-out: inhibition constant Ki): 14.7 nM
- IC50 (CK2 holoenzyme): 30 nM
- remaining activity at 10 µM (CK2α (CK2a)): 24%

SMILES: C=CC1=C(C)c2cc3[n-]c(cc4nc(cc5[n-]c(cc1n2)c(C)c5C=C)C(C)=C4CCC(=O)O)c(CCC(=O)O)c3C.[Fe+2] [Haematin]
- IC50 (CK2): 550 nM

SMILES: Brc1c(Br)c(Br)c2[nH]nnc2c1Br [TBB, 4,5,6,7-tetrabrombenzotriazole]
- solubility in water [5]: relatively poor solubility in water
- CK2 activity of LNCaP cell lysate ([2]; 75 μM, 24 h, called most probably a rogue result): 90%
- endogenous CK2 activity of LNCaP cells [2]: 50%
- viability of LNCaP cells (LNCaP cells; 25 μM, 72 h): no effects were observed
- viability at 75 µM (LNCaP cells; 24 h): 90%
- viability at 75 µM (LNCaP cells; 48 h): 45%
- viability at 75 µM (LNCaP cells; 72 h): 17%
- bands of the 89 kDa PARP fragment ([4]; 25 μM): a faint band could be seen at 89 kDa
- bands of the 89 kDa PARP fragment ([4]; from 50 μM, 24 h and 48 h): almost identical results

SMILES: CCOC(=O)c1oc2c(Cl)c(Cl)c(OC(C)=O)c(C#N)c2c1N [Ric138]
- IC50 (CK2 holoenzyme): 2400 nM
